Several values for one entry are separate records, joined by “and”; a condition that tells them apart may be missing. Identical values can stand only once.
Tests used:
Set-up in all cases: host or cells: CHO (tetracycline-inducible)
hASIC1a [1] = target: T1, hASIC1a (Homo sapiens, UniProt P78348); test: cell-based; conditions: pH 6.5 agonist, QPatch 48 single hole
T1 sequence (P78348 1-528): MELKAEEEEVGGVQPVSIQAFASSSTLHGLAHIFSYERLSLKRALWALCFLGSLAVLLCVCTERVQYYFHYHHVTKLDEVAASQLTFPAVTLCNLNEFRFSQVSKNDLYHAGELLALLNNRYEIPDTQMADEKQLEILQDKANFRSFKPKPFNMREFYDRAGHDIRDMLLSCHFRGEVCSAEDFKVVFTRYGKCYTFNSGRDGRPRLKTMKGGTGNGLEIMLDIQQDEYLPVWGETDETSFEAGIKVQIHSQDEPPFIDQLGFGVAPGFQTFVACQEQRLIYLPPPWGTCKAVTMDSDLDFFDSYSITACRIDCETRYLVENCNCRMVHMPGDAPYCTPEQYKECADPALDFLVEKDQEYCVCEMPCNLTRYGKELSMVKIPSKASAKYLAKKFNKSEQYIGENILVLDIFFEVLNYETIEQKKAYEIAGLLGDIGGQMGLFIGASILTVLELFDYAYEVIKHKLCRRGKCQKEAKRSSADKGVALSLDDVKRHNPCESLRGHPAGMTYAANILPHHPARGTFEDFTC
Description: (§1) CHO hASIC1a cells were cultured according to vendor instructions (B-SYS GmbH) and HEK cells using standard in-house methods. Both cell lines were harvested using optimized protocols and re-suspended in serum-free media (Gibco CHO-S-SFM from Thermo Fisher Scientific for CHO cells, and Ex-Cell 302 from Merck Sigma-Aldrich for HEK cells) to obtain a suspension of cells with smooth membranes and little debris, before transfer to the automated cell hotel consisting of a 60 ml plastic container (Sophion SB2050) and a magnetic stir bar to prevent cell clumping. An aliquot of cells is then aspirated into a 1 ml microcentrifuge tube and spun down (typically 150 g for 2.5 min) and the supernatant discarded before a user-defined volume of external solution is added by the robot and the cells re-suspended to achieve the desired final cell suspension density before application to primed QPlates. Cell capture, sealing and whole-cell access was achieved using optimized QPatch protocols before currents were recorded using a holding potential of −60 mV. […] Cells were washed three times with external pH 7.3 solution (5 μl) between applications of activating acidic solution to establish a stable ASIC1a current baseline. […] Each concentration of reference compound was applied to each cell before (i.e., during each pH 7.3 application period) and during each pH stimulus (IC50 mode). Thus, each concentration of test compound was pre-incubated with cells for at least 2 min before, and then during each acidic solution challenge, before wash-off in a neutral pH 7.3 solution that contained the next concentration of the same compound. Cells were allowed at least 2 min between applications of acidic solution to enable ASIC1a receptors to recover from desensitization.
(§2) Concentration-response xC50 curves from Patchliner and QPatch 48 experiments were calculated by plotting %inhibition (antagonists) or activation (pH) data against concentration in Prism software (GraphPad), using the variable sigmoidal dose-response function to fit the Hill equation with theoretical minimum block of 0% and maximum block of 100% and a free constant for Hill slope.
In addition, this protocol is designed to avoid tachyphylaxis associated with a more acidic pH stimulus, and it allows the development of a ligand-gated ASIC1a channel assay that can distinguish between agonists, partial agonists and antagonists. […] Compounds were tested using the cumulative concentration-response assay format shown in Figure 5A, which includes a 2 min pre-incubation period for each concentration to allow test samples to reach and equilibrate with their binding site(s) in the pore or large extracellular binding domain of ASIC1 receptor trimers. Agonist effects can also be detected during this period as membrane current data is recorded after every liquid addition. […] Mean inhibition data for each test sample is plotted against Log[compound] and fit with a concentration-response function.

hASIC1a [2] = target: T1, hASIC1a; test: SyncroPatch 384i APC, CHO hASIC1a, puff / stacked puff application; assay type: cell-based; conditions: pH 6.5
Description: CHO cells expressing ASIC1a (Charles River) were induced using tetracycline 3–6 h prior to dissociation into a cell suspension.
For recordings of stability and pharmacology using a bolus or “puff” application of ligand, 5 μl of the agonist solution was aspirated and applied to the cell; liquid dispense speed can be set between 1 and 100 μl/s, and a setting of 40 μl/s was used in these experiments. Following agonist addition, 50 μl of the total 90 μl volume in each well is then taken up by the tip to remove most of the agonist solution from the cell. […] For stability experiments, pH 6.5 was applied to each cell followed by a wash with pH 7.4 solution and a wait of 140 s to remove agonist and reverse any desensitization, before a second application of pH 6.5 was made. This sequence was repeated 6–7 times on each cell. For pharmacology experiments, ASIC1a responses were evoked 3 times by pH 6.5 application followed by pre-incubation in the inhibitor for 140 s, after which the inhibitor was co-applied with a pH 6.5 stimulus. Cumulative concentration responses were obtained for each well using 3–4 incrementing concentrations of inhibitor. Concentration response curves for each well were constructed and mean ± S.E.M values for IC50 are given.
To assess the pH sensitivity of ASIC1a responses, pipette tips were loaded with 5 μl of pH 7.4 wash solution followed by 5 μl of activating extracellular solution (pH 7.2 to 4.8). For each sweep, the baseline current was recorded for 1 s in pH 7.4 control solution before the application of the 5-μl activating solution, and then the pH 7.4 wash solution was dispensed with a delay of 1 s to allow for recording of channel opening and desensitization in the presence of ligand before ligand wash-off. Application of the wash solution was followed by aspiration of liquid (50 μl of 90 μl total volume) from each well after a delay of 4 s, before a second wash step with pH 7.4 was performed prior to the application of the next activating pH (interval between stimuli 140 s). Each well received an addition of pH 6.5 solution followed by application of a test pH, and this sequence was repeated a second time to enable data from each cell to be normalized to the control pH 6.5 addition. The pH response curve was constructed across multiple wells with replicates of 48. Pharmacology experiments were performed as described above in “puff” application.
Concentration response curves were fit using a Hill Equation. Statistical comparison of IC50 values for Benzamil was performed using a Student’s t test in Igor Pro 8 (Wavemetrics). […] Z-Factor (Z‘) is calculated using the equation: […]

hASIC1a [3] = target: T1, hASIC1a; test: QPatch 48 APC, CHO hASIC1a, multi-hole (10 hole X-plate) recordings; assay type: cell-based; conditions: multi-hole recordings, QPatch 48
Description: as §1, §2
Before employing a more efficient multi-hole assay it is important to establish that this variant of the APC whole-cell recording format returns the same biophysics and pharmacology as single cell recordings. To this end we ran some of the reference compounds detailed above in 10 hole “X-plate” mode on the QPatch 48.

[4] = 1X single hole chip, Stacked Puff
[5] = 4X multi-hole chip, Stacked Puff

SMILES | Hill slope (hASIC1a [1]) | Hill slope (hASIC1a [2]; 1X single hole chip, Puff) | Hill slope (hASIC1a [2]; [4]) | Hill slope (hASIC1a [2]; 4X multi-hole chip, Puff) | Hill slope (hASIC1a [2]; [5]) | Hill slope (Hn) (hASIC1a [3]) | IC50 (hASIC1a [1]; 2 min pre-incubation, read-out: IC50 potency) | IC50 (hASIC1a [2]; 1X single hole chip, Puff) | IC50 (hASIC1a [2]; [4]) | IC50 (hASIC1a [2]; 4X multi-hole chip, Puff) | IC50 (hASIC1a [2]; [5]) | IC50 (hASIC1a [3]; read-out: IC50)
N=C(N)NC(=O)c1nc(Cl)c(N)nc1N [Amiloride] | 0.9 | 1.20 ± 0.05 | 1.39 ± 0.02 | 1.19 ± 0.02 and 1.14 ± 0.01 | 1.24 ± 0.02 | 0.91 |  |  |  |  |  | 
NC(=NCc1ccccc1)NC(=O)c1nc(Cl)c(N)nc1N [Benzamil] | 1.1 | 1.07 ± 0.02 | 1.26 ± 0.03 | 1.18 ± 0.03 and 1.12 ± 0.02 | 1.12 ± 0.02 | 1.18 | 4660 nM | 1370 nM | 2480 ± 180 nM | 1430 nM and 1470 nM | 2200 ± 80 nM | 3490 nM

Reference: PMC9629855, “Development of ASIC1a ligand-gated ion channel drug screening assays across multiple automated patch clamp platforms” (Frontiers in Molecular Neuroscience, 2022)
